Measured values reported in ChEMBL document CHEMBL5653631, “A Potent and Selective ULK1 Inhibitor Suppresses Autophagy and Sensitizes Cancer Cells to Nutrient Stress” (iScience, 2018).
Blank lines part the entries; values can stand above or below the compound they belong to.

How the values were obtained:
[1] = target: T1, cGMP-dependent protein kinase 1 (Homo sapiens) (UniProt Q13976); test: Inhibition of human recombinant PKG1 at 500 nM in presence of ATP by radiometric assay relative to control
T1 sequence (whole entry): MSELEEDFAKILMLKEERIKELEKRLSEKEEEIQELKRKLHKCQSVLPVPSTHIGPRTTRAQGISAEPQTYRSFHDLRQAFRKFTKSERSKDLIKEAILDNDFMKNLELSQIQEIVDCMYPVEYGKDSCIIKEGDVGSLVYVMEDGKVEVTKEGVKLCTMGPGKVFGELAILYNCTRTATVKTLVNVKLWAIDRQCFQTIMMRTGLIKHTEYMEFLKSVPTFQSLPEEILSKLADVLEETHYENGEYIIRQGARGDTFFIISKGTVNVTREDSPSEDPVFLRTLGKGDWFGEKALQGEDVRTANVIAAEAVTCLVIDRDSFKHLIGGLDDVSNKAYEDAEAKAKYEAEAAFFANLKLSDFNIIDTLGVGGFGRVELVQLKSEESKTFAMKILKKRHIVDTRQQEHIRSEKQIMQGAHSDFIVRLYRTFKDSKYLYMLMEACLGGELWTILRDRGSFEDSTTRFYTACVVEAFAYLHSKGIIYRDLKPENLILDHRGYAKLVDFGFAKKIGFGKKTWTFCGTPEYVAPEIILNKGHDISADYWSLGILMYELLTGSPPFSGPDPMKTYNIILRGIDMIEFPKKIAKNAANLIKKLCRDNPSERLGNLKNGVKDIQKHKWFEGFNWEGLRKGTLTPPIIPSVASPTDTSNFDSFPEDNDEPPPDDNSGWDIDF

[2] = target: T2, Serine/threonine-protein kinase haspin (Homo sapiens) (UniProt Q8TF76); test: Inhibition of human recombinant Haspin at 500 nM related to control ULK1
T2 sequence (whole entry): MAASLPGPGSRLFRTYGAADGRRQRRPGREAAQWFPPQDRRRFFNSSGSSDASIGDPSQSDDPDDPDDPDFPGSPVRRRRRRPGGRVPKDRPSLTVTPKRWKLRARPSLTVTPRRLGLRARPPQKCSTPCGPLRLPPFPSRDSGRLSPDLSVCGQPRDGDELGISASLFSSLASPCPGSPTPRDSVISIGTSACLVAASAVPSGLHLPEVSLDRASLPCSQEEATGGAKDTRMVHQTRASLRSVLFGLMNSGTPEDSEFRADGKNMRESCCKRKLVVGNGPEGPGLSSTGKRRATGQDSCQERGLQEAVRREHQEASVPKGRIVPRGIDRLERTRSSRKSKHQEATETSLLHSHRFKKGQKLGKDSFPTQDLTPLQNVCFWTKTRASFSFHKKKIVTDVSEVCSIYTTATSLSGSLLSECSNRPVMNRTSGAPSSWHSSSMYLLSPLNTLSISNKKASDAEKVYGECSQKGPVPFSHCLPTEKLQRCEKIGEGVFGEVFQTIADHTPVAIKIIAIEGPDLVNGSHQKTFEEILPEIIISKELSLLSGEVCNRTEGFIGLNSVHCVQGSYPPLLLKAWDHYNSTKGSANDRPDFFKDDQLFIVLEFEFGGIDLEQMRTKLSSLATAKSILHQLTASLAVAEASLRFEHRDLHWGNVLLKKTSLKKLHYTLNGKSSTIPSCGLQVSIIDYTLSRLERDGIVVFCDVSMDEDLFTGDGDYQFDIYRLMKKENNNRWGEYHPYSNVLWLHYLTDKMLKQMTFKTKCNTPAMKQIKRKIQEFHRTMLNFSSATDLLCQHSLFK

[3] = target: Transcription initiation factor TFIID subunit 1-like (Homo sapiens) (UniProt Q8IZX4); test: Inhibition of human recombinant TAF1L at 500 nM related to control ULK1
[4] = target: Receptor-type tyrosine-protein kinase FLT3 (Homo sapiens) (UniProt P36888); test: Inhibition of human recombinant FLT3 at 40 nM related to control ULK1
[5] = target: T3, Ephrin type-A receptor 3 (Homo sapiens) (UniProt P29320); test: Inhibition of human recombinant EphA3 at 15 nM related to control ULK1
T3 sequence (whole entry): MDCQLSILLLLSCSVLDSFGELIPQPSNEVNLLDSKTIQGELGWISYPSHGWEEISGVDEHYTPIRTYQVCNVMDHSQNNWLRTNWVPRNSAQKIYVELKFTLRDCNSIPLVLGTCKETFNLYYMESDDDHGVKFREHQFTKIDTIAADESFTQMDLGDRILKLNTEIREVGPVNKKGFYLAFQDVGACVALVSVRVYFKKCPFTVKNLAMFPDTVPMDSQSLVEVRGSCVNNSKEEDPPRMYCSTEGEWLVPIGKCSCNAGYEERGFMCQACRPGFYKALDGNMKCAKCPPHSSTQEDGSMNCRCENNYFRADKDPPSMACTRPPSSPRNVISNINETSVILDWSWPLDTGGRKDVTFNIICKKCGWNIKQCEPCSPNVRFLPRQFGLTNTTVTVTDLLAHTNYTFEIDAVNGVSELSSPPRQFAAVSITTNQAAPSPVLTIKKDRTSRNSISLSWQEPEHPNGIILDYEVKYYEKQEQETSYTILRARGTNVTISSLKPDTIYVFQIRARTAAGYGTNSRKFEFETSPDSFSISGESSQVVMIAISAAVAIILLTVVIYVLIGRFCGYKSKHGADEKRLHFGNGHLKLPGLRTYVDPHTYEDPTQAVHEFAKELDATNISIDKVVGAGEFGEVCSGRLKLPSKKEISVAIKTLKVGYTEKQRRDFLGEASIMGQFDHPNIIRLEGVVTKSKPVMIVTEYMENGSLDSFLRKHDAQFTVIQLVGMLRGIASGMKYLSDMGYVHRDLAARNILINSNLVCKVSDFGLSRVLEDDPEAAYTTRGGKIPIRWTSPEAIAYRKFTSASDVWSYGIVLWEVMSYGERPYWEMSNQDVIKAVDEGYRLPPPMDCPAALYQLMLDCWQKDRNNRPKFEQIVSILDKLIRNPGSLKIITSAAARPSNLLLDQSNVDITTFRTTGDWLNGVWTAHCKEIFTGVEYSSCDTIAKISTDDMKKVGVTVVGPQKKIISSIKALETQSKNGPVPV

[6] = target: Tyrosine-protein kinase Lck (Homo sapiens) (UniProt P06239); test: Inhibition of human recombinant LCK at 15 nM related to control ULK1
[7] = target: TRAF2 and NCK-interacting protein kinase (Homo sapiens) (UniProt Q9UKE5); test: Inhibition of human recombinant TNIK at 15 nM related to control ULK1
TRAF2 and NCK-interacting protein kinase (Homo sapiens), sequence (Q9UKE5 whole entry, looked up): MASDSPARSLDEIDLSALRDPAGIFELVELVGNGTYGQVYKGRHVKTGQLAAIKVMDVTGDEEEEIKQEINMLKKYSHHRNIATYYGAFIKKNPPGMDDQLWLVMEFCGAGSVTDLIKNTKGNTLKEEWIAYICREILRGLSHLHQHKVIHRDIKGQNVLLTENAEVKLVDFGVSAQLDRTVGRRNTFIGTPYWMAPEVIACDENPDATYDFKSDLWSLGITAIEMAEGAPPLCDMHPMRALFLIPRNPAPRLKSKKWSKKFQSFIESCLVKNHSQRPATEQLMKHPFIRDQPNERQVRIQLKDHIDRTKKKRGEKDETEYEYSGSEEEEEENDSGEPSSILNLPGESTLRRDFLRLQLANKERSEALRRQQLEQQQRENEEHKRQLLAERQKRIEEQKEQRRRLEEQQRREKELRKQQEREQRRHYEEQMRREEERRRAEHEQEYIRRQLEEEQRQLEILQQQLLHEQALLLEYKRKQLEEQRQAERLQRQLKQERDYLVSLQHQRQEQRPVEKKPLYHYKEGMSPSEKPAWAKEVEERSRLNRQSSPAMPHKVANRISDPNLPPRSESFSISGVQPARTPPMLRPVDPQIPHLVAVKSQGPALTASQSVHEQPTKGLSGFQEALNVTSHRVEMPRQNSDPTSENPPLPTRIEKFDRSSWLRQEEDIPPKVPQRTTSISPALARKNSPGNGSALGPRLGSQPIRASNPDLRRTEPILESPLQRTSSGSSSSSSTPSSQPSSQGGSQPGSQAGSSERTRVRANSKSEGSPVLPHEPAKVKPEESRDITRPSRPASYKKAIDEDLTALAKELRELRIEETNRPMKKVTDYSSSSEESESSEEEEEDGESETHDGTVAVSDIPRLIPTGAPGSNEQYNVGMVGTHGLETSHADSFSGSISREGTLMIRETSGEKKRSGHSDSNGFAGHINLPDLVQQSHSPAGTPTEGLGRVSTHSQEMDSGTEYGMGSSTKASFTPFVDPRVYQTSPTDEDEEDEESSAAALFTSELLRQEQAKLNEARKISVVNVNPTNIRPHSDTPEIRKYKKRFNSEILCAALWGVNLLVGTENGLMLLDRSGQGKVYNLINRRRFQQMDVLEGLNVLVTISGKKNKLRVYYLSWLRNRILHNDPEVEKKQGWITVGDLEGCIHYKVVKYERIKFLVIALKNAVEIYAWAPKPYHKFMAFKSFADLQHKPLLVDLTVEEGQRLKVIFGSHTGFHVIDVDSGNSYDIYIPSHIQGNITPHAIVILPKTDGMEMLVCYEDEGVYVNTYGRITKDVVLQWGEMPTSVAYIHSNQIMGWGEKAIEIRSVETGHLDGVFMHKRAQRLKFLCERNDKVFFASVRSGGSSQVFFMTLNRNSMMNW

Receptor-type tyrosine-protein kinase FLT3 (Homo sapiens), sequence (P36888 whole entry): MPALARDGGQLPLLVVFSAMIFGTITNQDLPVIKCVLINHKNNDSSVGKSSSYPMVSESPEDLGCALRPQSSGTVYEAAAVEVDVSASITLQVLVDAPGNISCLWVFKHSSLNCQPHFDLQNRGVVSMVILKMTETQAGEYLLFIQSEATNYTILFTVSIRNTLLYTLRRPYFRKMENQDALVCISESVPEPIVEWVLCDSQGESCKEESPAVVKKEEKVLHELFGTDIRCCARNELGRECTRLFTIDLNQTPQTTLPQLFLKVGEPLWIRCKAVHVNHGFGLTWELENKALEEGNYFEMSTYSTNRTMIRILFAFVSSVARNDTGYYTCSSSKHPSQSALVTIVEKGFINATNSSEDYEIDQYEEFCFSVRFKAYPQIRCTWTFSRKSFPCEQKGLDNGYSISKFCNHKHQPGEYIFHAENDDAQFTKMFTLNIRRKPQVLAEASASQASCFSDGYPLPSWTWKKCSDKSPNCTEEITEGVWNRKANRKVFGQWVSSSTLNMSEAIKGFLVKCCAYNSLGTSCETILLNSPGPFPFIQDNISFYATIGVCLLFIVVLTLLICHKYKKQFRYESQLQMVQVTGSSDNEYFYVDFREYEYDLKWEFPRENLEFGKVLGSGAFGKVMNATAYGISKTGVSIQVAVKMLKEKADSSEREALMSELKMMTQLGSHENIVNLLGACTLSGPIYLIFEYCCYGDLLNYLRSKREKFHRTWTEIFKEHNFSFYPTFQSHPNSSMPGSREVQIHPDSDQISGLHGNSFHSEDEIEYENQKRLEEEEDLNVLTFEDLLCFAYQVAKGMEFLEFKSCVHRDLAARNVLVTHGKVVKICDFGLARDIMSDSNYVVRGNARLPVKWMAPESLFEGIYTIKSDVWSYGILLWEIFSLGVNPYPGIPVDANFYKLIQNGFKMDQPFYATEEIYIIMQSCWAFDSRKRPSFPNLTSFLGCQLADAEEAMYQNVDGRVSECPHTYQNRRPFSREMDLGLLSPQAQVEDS
Transcription initiation factor TFIID subunit 1-like (Homo sapiens), sequence (Q8IZX4 whole entry): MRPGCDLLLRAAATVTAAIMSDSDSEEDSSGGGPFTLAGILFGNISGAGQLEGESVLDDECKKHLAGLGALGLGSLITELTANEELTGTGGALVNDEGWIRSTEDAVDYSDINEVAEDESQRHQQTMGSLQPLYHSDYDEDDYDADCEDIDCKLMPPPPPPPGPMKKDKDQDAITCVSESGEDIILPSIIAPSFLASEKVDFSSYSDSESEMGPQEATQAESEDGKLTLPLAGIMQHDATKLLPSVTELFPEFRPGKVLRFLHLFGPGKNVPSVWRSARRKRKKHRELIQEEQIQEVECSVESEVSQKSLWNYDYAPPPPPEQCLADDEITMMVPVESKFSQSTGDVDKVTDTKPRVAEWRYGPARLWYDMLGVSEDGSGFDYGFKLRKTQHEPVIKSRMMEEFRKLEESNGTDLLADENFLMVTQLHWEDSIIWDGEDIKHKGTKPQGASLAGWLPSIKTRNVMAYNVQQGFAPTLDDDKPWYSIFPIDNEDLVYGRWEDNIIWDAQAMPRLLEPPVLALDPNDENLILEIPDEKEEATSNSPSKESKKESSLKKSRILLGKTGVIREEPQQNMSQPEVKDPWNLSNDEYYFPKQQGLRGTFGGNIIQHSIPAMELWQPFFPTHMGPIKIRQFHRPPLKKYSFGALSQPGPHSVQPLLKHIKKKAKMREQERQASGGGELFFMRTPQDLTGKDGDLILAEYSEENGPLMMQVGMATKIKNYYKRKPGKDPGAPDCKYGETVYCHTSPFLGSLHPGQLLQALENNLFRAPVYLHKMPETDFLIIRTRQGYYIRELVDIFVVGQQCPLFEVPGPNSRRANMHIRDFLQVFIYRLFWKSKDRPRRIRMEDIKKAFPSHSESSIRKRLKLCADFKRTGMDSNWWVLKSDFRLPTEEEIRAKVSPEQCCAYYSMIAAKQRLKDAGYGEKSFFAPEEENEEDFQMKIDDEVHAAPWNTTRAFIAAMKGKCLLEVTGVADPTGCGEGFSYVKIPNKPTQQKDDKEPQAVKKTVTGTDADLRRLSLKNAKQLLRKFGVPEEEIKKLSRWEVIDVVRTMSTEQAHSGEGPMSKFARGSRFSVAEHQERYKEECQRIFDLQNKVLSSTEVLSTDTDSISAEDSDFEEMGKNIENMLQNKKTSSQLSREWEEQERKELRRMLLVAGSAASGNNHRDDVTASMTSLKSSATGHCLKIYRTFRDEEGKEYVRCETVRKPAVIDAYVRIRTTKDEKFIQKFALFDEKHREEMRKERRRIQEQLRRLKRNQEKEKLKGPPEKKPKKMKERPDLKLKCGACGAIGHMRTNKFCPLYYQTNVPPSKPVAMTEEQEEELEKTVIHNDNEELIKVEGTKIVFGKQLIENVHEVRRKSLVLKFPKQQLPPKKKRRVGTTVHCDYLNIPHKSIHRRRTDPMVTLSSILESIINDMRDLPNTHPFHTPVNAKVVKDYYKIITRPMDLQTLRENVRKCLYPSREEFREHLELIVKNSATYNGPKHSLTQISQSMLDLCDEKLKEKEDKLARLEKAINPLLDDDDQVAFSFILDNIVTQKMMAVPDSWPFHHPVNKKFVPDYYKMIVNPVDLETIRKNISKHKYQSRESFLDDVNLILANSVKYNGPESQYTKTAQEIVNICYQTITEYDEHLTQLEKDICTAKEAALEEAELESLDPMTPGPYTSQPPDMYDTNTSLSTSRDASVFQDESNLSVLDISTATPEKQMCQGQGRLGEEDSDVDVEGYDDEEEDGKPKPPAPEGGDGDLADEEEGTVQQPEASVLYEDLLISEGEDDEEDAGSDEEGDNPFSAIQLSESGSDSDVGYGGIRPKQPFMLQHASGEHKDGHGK
Tyrosine-protein kinase Lck (Homo sapiens), sequence (P06239 2-509 limits assumed): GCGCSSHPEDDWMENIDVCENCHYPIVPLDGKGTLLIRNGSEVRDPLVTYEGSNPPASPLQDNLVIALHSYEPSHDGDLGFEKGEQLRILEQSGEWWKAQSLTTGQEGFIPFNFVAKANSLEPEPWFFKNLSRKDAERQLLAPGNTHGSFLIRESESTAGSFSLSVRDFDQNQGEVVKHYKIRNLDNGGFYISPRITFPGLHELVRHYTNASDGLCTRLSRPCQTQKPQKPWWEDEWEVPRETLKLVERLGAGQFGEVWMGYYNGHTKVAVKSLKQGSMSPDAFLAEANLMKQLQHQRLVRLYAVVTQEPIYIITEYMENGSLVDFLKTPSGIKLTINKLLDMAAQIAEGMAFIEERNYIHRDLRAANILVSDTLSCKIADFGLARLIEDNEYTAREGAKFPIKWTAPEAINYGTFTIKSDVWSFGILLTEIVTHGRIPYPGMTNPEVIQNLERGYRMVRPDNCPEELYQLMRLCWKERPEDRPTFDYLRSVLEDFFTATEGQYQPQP

- inhibition [1]: 4%
- fold change (FC) [2]: 0
- fold change (FC) [3]: 0
SMILES: CNC(=O)c1ccccc1Oc1nc(Nc2cc(OC)c(OC)c(OC)c2)ncc1Br

- fold change (FC) [4]: 0.26
SMILES: O=C(N[C@@H](C1CC1)C(F)(F)F)c1cc(-c2cnn3cc(-c4ccc(F)cc4)cnc23)cs1

- fold change (FC) [5]: 0.03
- fold change (FC) [6]: 0.13
- fold change (FC) [7]: 0.06
SMILES: CC(C)[C@H](NC(=O)c1cc(-c2cnn3cc(-c4ccc(OCCN5CCCCC5)cc4)cnc23)cs1)C(F)(F)F
